Results as given in ChEMBL document CHEMBL1158219, “Cell-based screen for identification of inhibitors of tubulin polymerization” (J Nat Prod, 1996).
Calls of active or inactive are those of the source. The calls are words filed in the database; no cut-off is given here. *1 amine or outer side, *2 acyl side, *3 side chain or, on linkers, in order; H or OH if unused. Where a SMILES comes first, the peptide text is derived from it. Bridges are numbered along the chain shown (N, C = ends). Roman numbers before positions name the chains, in order. [ ]: non-standard residue; d: D form. Actinocin(9to1) = Cc1c2oc3c(C)ccc(C(=O)[*:1])c3nc-2c(C(=O)[*:2])c(N)c1=O; NMeV = CN[C@H](C(=O)O)C(C)C; Sar = CNCC(=O)O

Tests used:
[1] = tested on: C6; assay: Cytotoxicity against rat C6 cells after 3 days treated 4 hrs before db-cAMP challenge by MTT assay; assay type: functional; details: read-out: LC50 (the source's name)
[2] = Inhibition of tubulin polymerization in rat C6 cells after 4 hrs; assay type: cell-based
[3] = tested on: C6; assay: Cytotoxicity against rat C6 cells assessed as cell release at 50 ug/mL to 2.5 mg/mL after 5 hrs by MTT assay in absence of db-cAMP; assay type: functional, cell-based
[4] = tested on: C6; assay: Cytotoxicity against rat C6 cells at 50 ug/mL to 2.5 mg/mL after 3 days treated 4 hrs before db-cAMP challenge by MTT assay; assay type: functional, cell-based
[5] = tested on: C6; assay: Inhibition of tubulin polymerization in rat C6 cells at 50 ug/mL to 2.5 mg/mL after 4 hrs; assay type: cell-based

| Structure (SMILES) | CC50 [1] [nM] | EC50 [2] [µM] | Activity [3] | Activity [4] | Activity [5] |
| --- | --- | --- | --- | --- | --- |
| COc1cc([C@@H]2c3cc4c(cc3[C@@H](O[C@@H]3O[C@@H]5CO[C@@H](C)O[C@H]5[C@H](O)[C@H]3O)[C@H]3COC(=O)[C@H]23)OCO4)cc(OC)c1O [ETOPOSIDE] | 120 | 680 | inactive | – | – |
| CO[C@@H]1[C@@H](OC(N)=O)[C@@H](O)[C@H](Oc2ccc3c(O)c(NC(=O)c4ccc(O)c(CC=C(C)C)c4)c(=O)oc3c2C)OC1(C)C | – | – | inactive | inactive | inactive |
| COc1cccc2c1C(=O)c1c(O)c3c(c(O)c1C2=O)C[C@@](O)(C(=O)CO)C[C@@H]3O[C@H]1C[C@H](N)[C@H](O)[C@H](C)O1 | – | – | inactive | inactive | inactive |
| CC[C@]1(O)C[C@H]2CN(CCc3c([nH]c4ccccc34)[C@@](C(=O)OC)(c3cc4c(cc3OC)N(C=O)[C@H]3[C@@](O)(C(=O)OC)[C@H](OC(C)=O)[C@]5(CC)C=CCN6CC[C@]43[C@@H]65)C2)C1 [VINCRISTINE] | 320 | 6.2 | inactive | – | – |
| C=CC[C@@H](CC/C(C)=C/C=C/CC/C=C\[C@@H]1CSC([C@@H]2C[C@@H]2C)=N1)OC [CURACIN A] | 11 | 0.51 | inactive | – | – |
| N[C@@H](Cc1ccc(N(CCCl)CCCl)cc1)C(=O)O | – | – | inactive | inactive | inactive |
| CCn1cc(C(=O)O)c(=O)c2ccc(C)nc21 | – | – | inactive | inactive | inactive |
| C=C1[C@@H](C)[C@H]2[C@H](Cc3ccccc3)NC(=O)[C@]23OC(=O)/C=C/[C@H](O)CCC[C@@H](C)C/C=C/[C@H]3[C@@H]1O | – | – | inactive | inactive | inactive |
| CC[C@]1(O)C[C@@H]2CN(CCc3c([nH]c4ccccc34)[C@@](C(=O)OC)(c3cc4c(cc3OC)N(C)[C@H]3[C@@](O)(C(=O)OC)[C@H](OC(C)=O)[C@]5(CC)C=CCN6CC[C@]43[C@@H]65)C2)C1 [VINBLASTINE] | 66 | 8.2 | inactive | – | – |
| CC(=O)O[C@H]1C(=O)[C@@]2(C)[C@H]([C@H](OC(=O)c3ccccc3)[C@]3(O)C[C@H](OC(=O)[C@H](O)[C@@H](NC(=O)c4ccccc4)c4ccccc4)C(C)=C1C3(C)C)[C@]1(OC(C)=O)CO[C@@H]1C[C@@H]2O [PACLITAXEL] | 23 | – | – | – | – |
| COc1cc([C@@H]2c3cc4c(cc3[C@@H](O[C@@H]3O[C@@H]5CO[C@@H](c6cccs6)O[C@H]5[C@H](O)[C@H]3O)[C@H]3COC(=O)[C@H]23)OCO4)cc(OC)c1O | – | – | inactive | inactive | inactive |
| Cc1c2oc3c(C)ccc(C(=O)N[C@@H]4C(=O)N[C@H](C(C)C)C(=O)N5CCC[C@H]5C(=O)N(C)CC(=O)N(C)[C@@H](C(C)C)C(=O)O[C@@H]4C)c3nc-2c(C(=O)N[C@@H]2C(=O)N[C@H](C(C)C)C(=O)N3CCC[C@H]3C(=O)N(C)CC(=O)N(C)[C@@H](C(C)C)C(=O)O[C@@H]2C)c(N)c1=O (I: T[dV]P[Sar][NMeV] / II: T[dV]P[Sar][NMeV]; ester I:1-I:C, II:1-II:C; linker I:N-II:N via Actinocin(9to1)) | – | – | inactive | inactive | inactive |
| COc1cc2c(c(OC)c1OC)-c1ccc(OC)c(=O)cc1[C@@H](NC(C)=O)CC2 [COLCHICINE] | 200 | 0.1 | inactive | – | – |
| CN(N=O)C(=O)N[C@@H](C=O)[C@@H](O)[C@H](O)[C@H](O)CO | – | – | inactive | inactive | inactive |
| COc1cccc2c1C(=O)c1c(O)c3c(c(O)c1C2=O)C[C@@](O)(C(C)=O)C[C@@H]3O[C@H]1C[C@H](N)[C@H](O)[C@H](C)O1 | – | – | inactive | inactive | inactive |
| O=NN(CCCl)C(=O)NCCCl | – | – | inactive | inactive | inactive |
| CO[C@@]12[C@H](COC(N)=O)C3=C(C(=O)C(C)=C(N)C3=O)N1C[C@@H]1N[C@@H]12 | – | – | inactive | inactive | inactive |
| O=C1c2c(O)ccc(O)c2C(=O)c2c(NCCNCCO)ccc(NCCNCCO)c21 | – | – | inactive | inactive | inactive |
| Clc1ccc(C(c2ccccc2Cl)C(Cl)Cl)cc1 (stereo not drawn) | – | – | inactive | inactive | inactive |
| C[C@@H]1C[C@@H]([C@H](O)CC2CC(=O)NC(=O)C2)C(=O)[C@@H](C)C1 | – | – | inactive | inactive | inactive |
